In one experiment the target is T1, human MetAP1 (Homo sapiens, UniProt P53582).
T1 construct: Full length MetAP2 (human and mouse) and MetAP1 (human) proteins are generated from Sf9 cells; made in house; host or cells: Sf9 cells
The experiment in a line: Enzymatic activity assay of human MetAP1 (fluorescence, rhodamine-methionine). In kind it is biochemical. The note with it: substrate 50 μM, 60 minutes; read-out: hMetAP1 IC50. Here is the method:
(§1) Full length MetAP2 (human and mouse) and MetAP1 (human) proteins are generated from Sf9 cells using procedure similar to that described in Biochemistry 2003, 42, 5035-5042. MetAP2 and MetAP1 are purified in the presence of 5 mM MnCl2 and 2 mM CoCl2 respectively, and stored at −78° C. before use.
(§2) Inhibition of the catalytic activity of human and mouse MetAP2 by compounds in the present invention is measured by monitoring the formation of the product peptide (Gly-Lys-Val-Lys-Val-Gly-Val-Asn-Gly) from the substrate peptide (Met-Gly-Lys-Val-Lys-Val-Gly-Val-Asn-Gly) via LC/MS. The reaction is typically conducted by incubating the enzyme, test compound and substrate (150 μM) in a 100 μl assay buffer (50 mM HEPES, 100 mM NaCl, […], 0.17 mM Triton™ X-100 μl at pH 7.5) for 40 minutes. After the reaction is stopped by the addition of 200 μl CH3CN, the levels of product and remaining substrate are quantified with a mass spectrometer. The activity of human MetAP1 is monitored by the formation of the fluorescent product rhodamine-methionine from the substrate methionine-rhodamine-methionine on a spectrophotometer with the excitation light at 460 nm and emission light at 535 nm. The reaction is typically conducted by incubating the enzyme, test compound and substrate (50 μM) in a 100 μl assay buffer (50 mM HEPES, 100 mM NaCl, 0.1% BSA, 0.05% Tween®-20, 50 μM CoCl2) for 60 minutes. […]

Another experiment has as its system obese DIO mice. The experiment in a line: Therapeutic weight loss effect in high fat diet induced obese (DIO) mice. The class given is in vivo, mouse. As to conditions: day 14. Here is the method: To determine the therapeutic weight loss effects and improvement of metabolic parameters, the compound from the invention is tested in the high fat diet (HFD) feeding induced obese mouse model (DIO mice). In this model, C57/Bl6J male mouse is fed with the 60% HFD (D12492i, Research Diets) for 16˜28 weeks to establish obesity with body weight reaching around 50 g. The mice will gradually increase the body weight to about 50 g and maintain that weight in this obese state. Test compound (via the vehicle of 0.5% HEC plus 0.25% Tween®-80 at 5 mL/kg) is administered orally to the obese DIO mice once or twice daily throughout the study duration. The dose-dependent weight loss of obese DIO mice for Example 1 of the oral treatment at 20 mg/kg and 60 mg/kg once daily is about 4% and 17% weight loss compared to the vehicle group at day 14, respectively. The data support that the compound of Example 1 is associated with desired weight loss and could offer a therapeutic weight loss effect.

The target in experiment [1] is T2, mouse DPP-4 ((29-760)-His) (Mus musculus, UniProt P28843).
T2 construct: mouse DPP-4 ((29-760)-His); His (C); made in house
The experiment in a line: Enzymatic activity assay of mouse DPP-4 (Gly-Pro-AMC fluorescence). The class given is biochemical. As to conditions: Mean ± SEM; substrate 10 μM, 30 minutes; read-out: mDPP-4 IC50. Here is the method: (§3) Human DPP-4 ((39-766)-His) and mouse DPP-4 ((29-760)-His) are purified for use in the assay. The final concentration of hDPP-4 and mDPP-4 in the assay is 0.04 nM and 0.22 nM respectively.
(§4) Inhibition of the catalytic activity of human and mouse DPP-4 by the compound in the present invention is monitored by the formation of product fluorescence AMC (7-amido-4-methylcoumarin hydrobromide) from substrate Gly-Pro-AMC (Sigma, G2761) on an Envision plate reader. The reaction is typically conducted by incubating the enzyme, test compound, and substrate (10 μM) in a 75 μl assay buffer (0.01% BSA, 0.1 mM EDTA, […], 0.01% Triton™-X100, 0.1 M NaCl at pH 7.5) for 30 minutes. After the reaction is stopped by the addition of 25 μl ZnSO4 (10 mM), the formation of fluorescent product AMC is measured on an Envision plate reader with the excitation wavelength at 355 nm and emission wavelength at 460 nm. The IC50 value is calculated typically from a 10-point dose titration curve using the 4-parameter logistic equation.

In the next experiment the target is T3, plasma DPP-4 (Mus musculus, UniProt P28843).
T3 construct: Plasma, isolated from the blood samples, is used to determine the plasma DPP-4 enzyme activity; from tissue; host or cells: plasma of C57B/L6 mice dosed with compound
The experiment in a line: DPP-4 pharmacodynamics assay in mouse (plasma DPP-4 enzyme activity). In kind it is in vivo. As to conditions: C57B/L6 lean mice, oral gavage, vehicle group = 0%. Here is the method:
To determine the in vivo DPP-4 inhibition by MetAP2 plus DPP-4 dual inhibitor compounds, C57B/L6 lean mice are administrated with the compound in fed states and then DPP-4 target engagement in plasma is measured. Animals are weighed and randomized by body weight. Each mouse is dosed via oral gavage with vehicle or testing compound formulated with vehicle for up to 3 times. The first dose is administrated at 9˜10 am on day 1. The second dose is administrated at 16:30˜17:30 on day 1. The third dose is administrated at 9˜10 am on day 2. The mice are fasted for 6 hours after the last dose before termination at ˜[…] on day 2. Blood samples are collected at 1 hour after the first dosing and upon termination. EDTA-K2 at final concentration of 5 mM is used as an anticoagulant. Plasma, isolated from the blood samples, is used to determine the plasma DPP-4 enzyme activity. Plasma DPP-4 enzyme activity in the present invention is monitored by the formation rate of fluorescence AMC from substrate Gly-Pro-AMC (Sigma, G2761) via Envision plate reader. […] Fluorescence signal is read immediately after the start of the reaction in kinetic model in Envision plate reader. […] The plasma DPP-4 activity is calculated from reaction velocity. […]

The next experiment has as its target T4, mouse MetAP2 (Mus musculus, UniProt O08663).
T4 construct: Full length MetAP2 (human and mouse) and MetAP1 (human) proteins are generated from Sf9 cells; made in house; host or cells: Sf9 cells
The experiment in a line: Enzymatic activity assay of mouse MetAP2 (LC/MS product peptide). In kind it is biochemical. The note with it: Mean ± SEM; substrate 150 μM, 40 minutes; read-out: mMetAP2 IC50. The protocol: as §1, §2

For experiment [2], the target named is T5, Human DPP-4 ((39-766)-His) (Homo sapiens, UniProt P27487).
T5 construct: Human DPP-4 ((39-766)-His); His (C); made in house
The experiment in a line: Enzymatic activity assay of human DPP-4 (Gly-Pro-AMC fluorescence). In kind it is biochemical. The note with it: Mean ± SEM; substrate 10 μM, 30 minutes; read-out: hDPP-4 IC50. Here is the method:
as §3, §4

The target in another experiment is T6, human MetAP2 (Homo sapiens, UniProt P50579).
T6 construct: Full length MetAP2 (human and mouse) and MetAP1 (human) proteins are generated from Sf9 cells; made in house; host or cells: Sf9 cells
The experiment in a line: Enzymatic activity assay of human MetAP2 (LC/MS product peptide). The note with it: Mean ± SEM; substrate 150 μM, 40 minutes; read-out: hMetAP2 IC50. The class given is biochemical. Here is the method:
as §1, §2

Experimental findings from patent publication US9822101B1, “Pyrazole compounds” (Eli Lilly and Company, priority 2015, dated 2017) are described below.

T3 sequence (P28843 37-760 limits assumed): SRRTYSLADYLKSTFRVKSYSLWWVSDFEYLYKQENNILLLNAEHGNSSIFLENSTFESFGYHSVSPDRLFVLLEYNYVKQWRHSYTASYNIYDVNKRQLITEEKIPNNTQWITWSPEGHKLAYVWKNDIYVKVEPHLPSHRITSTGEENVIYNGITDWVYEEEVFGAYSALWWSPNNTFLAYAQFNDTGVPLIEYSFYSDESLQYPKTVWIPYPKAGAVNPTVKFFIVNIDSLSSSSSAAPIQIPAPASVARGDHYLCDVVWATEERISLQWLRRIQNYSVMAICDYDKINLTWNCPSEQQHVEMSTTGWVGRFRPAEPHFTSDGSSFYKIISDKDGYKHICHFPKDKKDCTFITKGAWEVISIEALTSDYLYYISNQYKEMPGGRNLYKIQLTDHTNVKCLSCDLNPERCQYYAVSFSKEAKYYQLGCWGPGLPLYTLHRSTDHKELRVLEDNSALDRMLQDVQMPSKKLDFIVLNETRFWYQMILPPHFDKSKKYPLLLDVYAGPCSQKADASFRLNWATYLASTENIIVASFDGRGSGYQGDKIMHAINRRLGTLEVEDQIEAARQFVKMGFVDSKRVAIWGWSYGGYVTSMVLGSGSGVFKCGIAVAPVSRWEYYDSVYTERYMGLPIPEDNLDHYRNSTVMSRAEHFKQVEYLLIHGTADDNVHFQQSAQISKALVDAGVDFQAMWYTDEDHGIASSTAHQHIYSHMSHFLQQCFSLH
T4 sequence (O08663 whole entry): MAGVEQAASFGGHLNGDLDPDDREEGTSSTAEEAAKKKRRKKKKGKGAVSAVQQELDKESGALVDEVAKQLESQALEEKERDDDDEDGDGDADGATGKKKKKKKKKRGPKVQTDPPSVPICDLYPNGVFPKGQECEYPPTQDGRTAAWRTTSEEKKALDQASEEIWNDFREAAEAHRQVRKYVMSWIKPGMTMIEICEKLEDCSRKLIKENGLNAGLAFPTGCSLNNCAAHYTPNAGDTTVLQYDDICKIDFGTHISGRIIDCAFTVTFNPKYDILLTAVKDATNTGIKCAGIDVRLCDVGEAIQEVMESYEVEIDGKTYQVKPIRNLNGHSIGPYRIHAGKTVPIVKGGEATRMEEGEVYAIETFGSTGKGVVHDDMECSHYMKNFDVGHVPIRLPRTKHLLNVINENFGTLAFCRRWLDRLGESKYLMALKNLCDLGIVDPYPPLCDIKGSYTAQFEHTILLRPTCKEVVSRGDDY
T5 sequence (P27487 39-766): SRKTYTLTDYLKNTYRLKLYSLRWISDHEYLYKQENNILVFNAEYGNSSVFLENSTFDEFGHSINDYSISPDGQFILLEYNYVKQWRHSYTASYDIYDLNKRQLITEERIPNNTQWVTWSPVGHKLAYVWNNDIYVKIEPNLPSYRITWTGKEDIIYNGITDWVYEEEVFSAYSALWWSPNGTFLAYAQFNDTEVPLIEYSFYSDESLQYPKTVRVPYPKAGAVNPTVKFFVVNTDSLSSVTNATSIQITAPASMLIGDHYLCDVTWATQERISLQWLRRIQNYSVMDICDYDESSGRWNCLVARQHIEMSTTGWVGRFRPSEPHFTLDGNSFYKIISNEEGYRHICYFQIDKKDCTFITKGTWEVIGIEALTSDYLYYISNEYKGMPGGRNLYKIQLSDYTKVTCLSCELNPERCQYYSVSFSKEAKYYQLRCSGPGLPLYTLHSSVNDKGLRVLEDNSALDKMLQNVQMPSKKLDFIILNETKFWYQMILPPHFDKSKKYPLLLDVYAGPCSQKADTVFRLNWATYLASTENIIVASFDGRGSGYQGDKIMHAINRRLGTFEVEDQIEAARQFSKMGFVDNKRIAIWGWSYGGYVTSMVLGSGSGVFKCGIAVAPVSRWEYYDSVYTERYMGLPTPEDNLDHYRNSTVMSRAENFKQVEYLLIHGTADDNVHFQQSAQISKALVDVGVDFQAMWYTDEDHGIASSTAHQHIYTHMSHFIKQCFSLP
T2 sequence (P28843 29-760): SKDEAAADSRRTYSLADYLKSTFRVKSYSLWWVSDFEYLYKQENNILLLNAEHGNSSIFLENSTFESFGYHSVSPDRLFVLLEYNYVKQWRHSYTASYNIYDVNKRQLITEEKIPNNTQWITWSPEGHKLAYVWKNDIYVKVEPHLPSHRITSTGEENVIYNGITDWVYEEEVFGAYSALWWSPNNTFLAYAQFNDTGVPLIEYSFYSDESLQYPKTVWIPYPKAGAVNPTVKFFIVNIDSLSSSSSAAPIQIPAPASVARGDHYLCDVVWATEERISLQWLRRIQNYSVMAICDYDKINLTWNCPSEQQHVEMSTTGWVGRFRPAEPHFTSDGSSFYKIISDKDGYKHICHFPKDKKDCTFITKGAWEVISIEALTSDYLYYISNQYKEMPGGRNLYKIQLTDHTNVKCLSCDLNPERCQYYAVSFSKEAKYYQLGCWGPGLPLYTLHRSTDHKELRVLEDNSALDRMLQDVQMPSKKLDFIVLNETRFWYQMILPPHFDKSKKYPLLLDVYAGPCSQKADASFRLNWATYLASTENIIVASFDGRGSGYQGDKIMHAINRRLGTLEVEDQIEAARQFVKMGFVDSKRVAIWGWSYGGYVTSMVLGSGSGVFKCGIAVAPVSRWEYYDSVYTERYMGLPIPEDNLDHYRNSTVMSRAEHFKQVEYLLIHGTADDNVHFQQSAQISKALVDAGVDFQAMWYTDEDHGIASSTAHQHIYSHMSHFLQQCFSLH
T6 sequence (P50579 whole entry): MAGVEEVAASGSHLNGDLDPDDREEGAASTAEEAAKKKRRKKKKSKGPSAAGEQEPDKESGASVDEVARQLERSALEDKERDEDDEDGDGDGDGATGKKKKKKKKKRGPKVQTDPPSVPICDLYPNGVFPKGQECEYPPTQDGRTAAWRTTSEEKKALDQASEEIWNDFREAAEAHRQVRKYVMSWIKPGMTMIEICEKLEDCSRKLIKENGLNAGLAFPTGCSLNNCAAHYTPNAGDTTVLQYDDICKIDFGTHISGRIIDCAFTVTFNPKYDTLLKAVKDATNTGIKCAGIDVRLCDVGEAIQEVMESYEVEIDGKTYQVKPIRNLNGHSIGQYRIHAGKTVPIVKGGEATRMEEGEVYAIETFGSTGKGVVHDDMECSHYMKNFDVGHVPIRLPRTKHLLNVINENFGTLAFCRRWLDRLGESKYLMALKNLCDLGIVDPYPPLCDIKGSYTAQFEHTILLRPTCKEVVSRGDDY

As to `N[C@H]1CN(c2ncc(Oc3c[nH]nc3C3=CCC(F)(F)CC3)cn2)C[C@@H]1c1cc(F)c(F)cc1F` [Example 1, (3R,4S)-1-[5-[[3-(4,4-Difluorocyclohexen-1-yl)-1H-pyrazol-4-yl]oxy]pyrimidin-2-yl]-4-(2,4,5-trifluorophenyl)pyrrolidin-3-amine], the IC50 was more than 30000 nM at human MetAP1; 26 ± 11 nM in experiment [1]; 36 ± 34 nM at mouse MetAP2; 6 ± 2 nM in experiment [2]; 9 ± 3 nM on human MetAP2. Further, the “weight loss compared to the vehicle group” value in the experiment on obese DIO mice (oral 20 mg/kg once daily) is recorded as “about 4%”; in the experiment with obese DIO mice (oral 60 mg/kg once daily), approximately 17%. Further, the “plasma DPP-4 inhibition” value was found to be 86% on plasma DPP-4 (1 hour after the first dosing) and 83% on plasma DPP-4 (upon termination (6 hours after the last dose, day 2)).
